Source: PMC12508063, “Chloroindazole based estrogen receptor β ligands with favorable pharmacokinetics promote functional remyelination and visual recovery” (Scientific Reports, 2025)

Legend:
[1] = Liver microsome stability (human)
[2] = Hepatocyte stability (human)
[3] = tested on: EAE optic nerve gene transcripts; experiment: NanoString nCounter Mouse Neuropathology gene expression, optic nerve RNA; format: in vivo
Procedure: RNA Extraction and NanoString nCounter Gene Expression Assay: RNA was isolated from a single optic nerve of normal, EAE+Vehicle, and EAE+K102 mice[28]. The RNA samples were analyzed using the nCounter Mouse Neuropathology panel (NanoString Technologies) (Supplementary Data Set 1). Fold changes were calculated using normalized data for the three groups (Supplementary Data Set 2).
Genes associated with myelination, inflammation, and axon health are altered in EAE optic nerves compared to normal optic nerves. To examine how K102 treatment affects these gene transcripts, RNA from treated optic nerves was analyzed using the NanoString Neuropathology gene expression panel (Fig. 7A, Supplementary Data Set 1). […] Ccr2 is a chemokine receptor involved in recruiting immune cells to sites of inflammation. Cpt1b (carnitine palmitoyltransferase 1B) is an enzyme critical for fatty acid oxidation.
RNA Extraction and NanoString nCounter Gene Expression Assay: RNA was isolated from a single optic nerve as described previously in(9). Optic nerves were isolated from normal, EAE+V, and EAE+K102 mice. RNA isolates were run on the nCounter Mouse Neuropathology panel (NanoString Technologies, Seattle, WA). Normalized data was used to calculate fold change for all three groups.
For nCounter gene expression analysis, normalized counts were used to calculate log2 fold changes. Welch’s t-test (unequal variance t-test) was applied when comparing NM vs. EAE+V and EAE+V vs. EAE+K102, as both sample sizes and variances differed between groups. Significance levels were set as follows: *p < 0.05, **p < 0.01, ***p < 0.001, and ****p < 0.0001. Summary of statistics for Figures is in a table format in the supplementary sections Supplementary TableS7-S12 […]

EAE mice = experiment: Optical coherence tomography (RNFL thickness) in EAE; format: in vivo, mouse; settings: vs EAE + V
Procedure: Optical coherence tomography, electroretinograms and visual evoked potentials: OCT was acquired using the spectral domain‐OCT (R2200 840 nm HHP; Leica, Deerfield, IL) at peak EAE disease according to previously published methods[23],[28]. Each image was taken 3 times and averaged. Automatic segmentation of retinal layers was performed using Bioptigen Diver 3.0 software (Leica Microsystems, Deerfield, IL). ERG and VEPs were measured using the HMsERG200 ([…], Henderson, NV) as previously described[23],[28]. Animals were dark adapted for a minimum of 5 h prior to recording. During acquisition, animals were anesthetized with continuous 2% isoflurane. Traces were averaged and filtered for 60 Hz noise and a low-pass filter. MATLAB was used to adjust baselines and smoothed prior to measuring ERG and VEP amplitudes and latencies.
Optical coherence tomography: OCT was acquired using the spectral domain‐OCT (R2200 840 nm HHP; Leica, Deerfield, IL) at peak EAE disease according to previously published methods(8, 9). Each image was taken 3 times and averaged. Automatic segmentation of retinal layers was performed using Bioptigen Diver 3.0 software (Leica Microsystems, Deerfield, IL).

[4] = Oral PK of K102 at 40 mg/kg in female dogs; format: in vivo, beagle dog; settings: female dog, PO 40 mg/kg, mean
CYP2D6 = CYP2D6 (Homo sapiens, UniProt P10635); settings: 10 µM
Sequence of CYP2D6 (P10635 whole entry): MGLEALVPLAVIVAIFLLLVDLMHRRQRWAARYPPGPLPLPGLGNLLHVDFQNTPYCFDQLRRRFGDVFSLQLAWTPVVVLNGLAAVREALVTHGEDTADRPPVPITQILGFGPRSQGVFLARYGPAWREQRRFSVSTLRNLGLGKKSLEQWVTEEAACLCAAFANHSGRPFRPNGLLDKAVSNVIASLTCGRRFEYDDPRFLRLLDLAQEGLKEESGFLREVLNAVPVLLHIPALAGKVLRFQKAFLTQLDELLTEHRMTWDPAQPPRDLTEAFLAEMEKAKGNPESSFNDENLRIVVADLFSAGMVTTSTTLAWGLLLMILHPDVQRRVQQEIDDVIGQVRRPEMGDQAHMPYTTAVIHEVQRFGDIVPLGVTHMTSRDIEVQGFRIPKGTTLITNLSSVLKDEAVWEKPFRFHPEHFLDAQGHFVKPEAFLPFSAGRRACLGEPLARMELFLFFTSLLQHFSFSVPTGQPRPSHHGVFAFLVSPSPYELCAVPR

CYP3A4 = CYP3A4 (Homo sapiens, UniProt P08684); settings: 10 µM
Sequence of CYP3A4 (P08684 whole entry): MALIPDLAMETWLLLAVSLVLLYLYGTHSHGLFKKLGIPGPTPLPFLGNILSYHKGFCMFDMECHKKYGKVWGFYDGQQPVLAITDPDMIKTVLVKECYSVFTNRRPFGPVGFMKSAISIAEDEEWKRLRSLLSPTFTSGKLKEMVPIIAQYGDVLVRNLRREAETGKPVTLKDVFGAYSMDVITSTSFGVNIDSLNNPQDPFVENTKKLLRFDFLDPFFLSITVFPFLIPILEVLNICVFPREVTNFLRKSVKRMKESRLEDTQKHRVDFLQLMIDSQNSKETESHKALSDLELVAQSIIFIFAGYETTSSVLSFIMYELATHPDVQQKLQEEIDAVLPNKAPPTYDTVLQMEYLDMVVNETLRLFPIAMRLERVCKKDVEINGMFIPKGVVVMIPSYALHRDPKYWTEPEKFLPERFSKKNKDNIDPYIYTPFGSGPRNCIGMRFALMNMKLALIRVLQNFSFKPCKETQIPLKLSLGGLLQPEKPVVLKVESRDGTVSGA

Compound | Liver Microsome Stability (Human) % Remaining (30 min) ([1]; 30 min) | Liver Microsome Stability (Human) CLint ([1]; human, microsomes) | Hepatocyte Stability (Human) % Remaining (15 min) ([2]; 15 min) | Hepatocyte Stability (Human) CLint ([2]; human, hepatocytes) | Ccr2 and Cpt1b transcripts vs vehicle-treated optic nerves ([3]; 2 of 770 genes) | Arc and Pvalb transcripts vs vehicle ([3]; optic nerve, EAE) | Sox10 and Olig2 transcripts relative to vehicle ([3]; optic nerve, EAE) | complement system genes C1qa, C1qb, C1qc, and C3 ([3]; optic nerve, EAE) | mitochondrial-related genes Pink1, Tfam, Mfn2, Park7, and Sirt2 ([3]; vs untreated EAE optic nerves) | RNFL thickness (OCT) (EAE mice) | AUCInf/D [4] | AUClast [4] | Cmax [4] | Tmax [4] | CYP Inhibition Percentage CYP2D6 (CYP2D6) | CYP Inhibition Percentage CYP3A4-T (CYP3A4)
Cc1cc(O)ccc1-n1nc2ccc(O)cc2c1Cl [Compound K102, IndCl-o-Me] | 78.03% | 8.47 µL/min/mg protein | 60.05% | 72.12 µL/min/mg protein | significantly altered | increased | increase | did not significantly impact | significant increase | prevented the significant reduction | 0.6 kg·ng·h/mL/mg | 24.6 ng·h/mL | 31.7 ng/mL | 15 min |  | 
Oc1ccc(-n2nc3ccc(O)cc3c2Cl)c(O)c1 [Compound K110, IndCl-o-OH] |  |  |  |  |  |  |  |  |  |  |  |  |  |  | 5.63% | 45.13%
